Experimental data: ChEMBL document CHEMBL1148888, “Synthesis and antibacterial activity of 5-deoxy-5-episubstituted arbekacin derivatives” (2007)
≈ marks a conversion by molar mass, not a printed value.

What was measured:
Format in all cases: functional
Pseudomonas aeruginosa [1] = experiment: Antibacterial activity against Pseudomonas aeruginosa PAO1 by agar dilution method
Staphylococcus aureus [2] = experiment: Antibacterial activity against Staphylococcus aureus 209P JC1 by agar dilution method
Staphylococcus aureus [3] = experiment: Antibacterial activity against methicillin-resistant Staphylococcus aureus MF490 by agar dilution method
Staphylococcus aureus [4] = experiment: Antibacterial activity against methicillin-resistant Staphylococcus aureus MSC03571 by agar dilution method
Escherichia coli = experiment: Antibacterial activity against Escherichia coli NIH JC2 by agar dilution method
Pseudomonas aeruginosa [5] = experiment: Antibacterial activity against Pseudomonas aeruginosa GN315 by agar dilution method
Pseudomonas aeruginosa [6] = experiment: Antibacterial activity against Pseudomonas aeruginosa N101 by agar dilution method
Staphylococcus aureus [7] = experiment: Antibacterial activity against methicillin-resistant Staphylococcus aureus by agar dilution method
[8] = Pseudomonas aeruginosa, PAO1, read-out: MIC
[9] = Staphylococcus aureus, 209P JC1, read-out: MIC
[10] = Staphylococcus aureus, read-out: MIC
[11] = Escherichia coli, NIH JC2, read-out: MIC
[12] = Pseudomonas aeruginosa, read-out: MIC
[13] = Staphylococcus aureus, read-out: MIC50
[14] = Staphylococcus aureus, read-out: MIC90

| Structure (SMILES) | MIC (Pseudomonas aeruginosa [1]; [8]) | MIC (Staphylococcus aureus [2]; [9]) | MIC (Staphylococcus aureus [3]; [10]) | MIC (Staphylococcus aureus [4]; [10]) | MIC (Escherichia coli; [11]) | MIC (Pseudomonas aeruginosa [5]; [12]) | MIC (Pseudomonas aeruginosa [6]; [12]) | MIC50 (Staphylococcus aureus [7]; [13]) | MIC90 (Staphylococcus aureus [7]; [14]) | MIC (Pseudomonas aeruginosa [1]) | MIC (Staphylococcus aureus [2]) | MIC (Staphylococcus aureus [3]) | MIC (Staphylococcus aureus [4]) | MIC (Escherichia coli) | MIC (Pseudomonas aeruginosa [5]) | MIC (Pseudomonas aeruginosa [6]) | MIC50 (Staphylococcus aureus [7]) | MIC90 (Staphylococcus aureus [7]) |
| --- | --- | --- | --- | --- | --- | --- | --- | --- | --- | --- | --- | --- | --- | --- | --- | --- | --- | --- |
| NCC[C@H](O)C(=O)N[C@@H]1C[C@H](N)[C@@H](O[C@H]2O[C@H](CN)CC[C@H]2N)[C@@H](N)[C@H]1O[C@H]1O[C@H](CO)[C@@H](O)[C@H](N)[C@H]1O | 2 µg/mL (≈ 3.63 µM) | 0.13 µg/mL (≈ 0.236 µM) | 2 µg/mL (≈ 3.63 µM) | 4 µg/mL (≈ 7.25 µM) | 2 µg/mL (≈ 3.63 µM) | 16 µg/mL (≈ 29 µM) | 0.5 µg/mL (≈ 0.906 µM) | 0.5 µg/mL (≈ 0.906 µM) | 0.5 µg/mL (≈ 0.906 µM) |  |  |  |  |  |  |  |  |  |
| NCC[C@H](O)C(=O)N[C@@H]1C[C@H](N)[C@@H](O[C@H]2O[C@H](CN)CC[C@H]2N)[C@@H](Cl)[C@H]1O[C@H]1O[C@H](CO)[C@@H](O)[C@H](N)[C@H]1O | 2 µg/mL (≈ 3.5 µM) | 0.1 µg/mL (≈ 0.175 µM) | 3.13 µg/mL (≈ 5.48 µM) | 6.25 µg/mL (≈ 10.9 µM) | 1.56 µg/mL (≈ 2.73 µM) | 50 µg/mL (≈ 87.6 µM) | 0.5 µg/mL (≈ 0.876 µM) |  |  |  |  |  |  |  |  |  |  |  |
| CN[C@@H]1[C@@H](O)[C@@H](O[C@@H]2[C@H](O)[C@H](O[C@H]3O[C@H](CN)CC[C@H]3N)[C@@H](N)C[C@H]2NC(=O)[C@@H](O)CCN)O[C@H](CO)[C@H]1O | 2 µg/mL (≈ 3.53 µM) | 0.13 µg/mL (≈ 0.229 µM) | 4 µg/mL (≈ 7.06 µM) | 16 µg/mL (≈ 28.2 µM) | 2 µg/mL (≈ 3.53 µM) | 32 µg/mL (≈ 56.5 µM) |  |  |  |  |  |  |  |  |  |  |  |  |
| CN(C)[C@H]1[C@@H](O[C@H]2O[C@H](CO)[C@@H](O)[C@H](N)[C@H]2O)[C@H](NC(=O)[C@@H](O)CCN)C[C@H](N)[C@H]1O[C@H]1O[C@H](CN)CC[C@H]1N | 32 µg/mL (≈ 55.2 µM) | 1 µg/mL (≈ 1.73 µM) | 32 µg/mL (≈ 55.2 µM) | > 64 µg/mL | 16 µg/mL (≈ 27.6 µM) | > 32 µg/mL |  |  |  |  |  |  |  |  |  |  |  |  |
| NCCN[C@H]1[C@@H](O[C@H]2O[C@H](CO)[C@@H](O)[C@H](N)[C@H]2O)[C@H](NC(=O)[C@@H](O)CCN)C[C@H](N)[C@H]1O[C@H]1O[C@H](CN)CC[C@H]1N | 2 µg/mL (≈ 3.36 µM) | 0.13 µg/mL (≈ 0.219 µM) | 2 µg/mL (≈ 3.36 µM) | 4 µg/mL (≈ 6.73 µM) | 4 µg/mL (≈ 6.73 µM) | 64 µg/mL (≈ 108 µM) |  |  |  |  |  |  |  |  |  |  |  |  |
| NCC[C@H](O)C(=O)N[C@@H]1C[C@H](N)[C@@H](O[C@H]2O[C@H](CN)CC[C@H]2N)C(O)[C@H]1O[C@H]1O[C@H](CO)[C@@H](O)[C@H](N)[C@H]1O (single isomer, unassigned; form 2) [ARBEKACIN] |  |  |  |  |  |  |  |  |  | 2 µg/mL (≈ 3.62 µM) | 0.06 µg/mL (≈ 0.109 µM) | 64 µg/mL (≈ 116 µM) | 16 µg/mL (≈ 29 µM) | 1 µg/mL (≈ 1.81 µM) | 16 µg/mL (≈ 29 µM) | 0.25 µg/mL (≈ 0.452 µM) | 1 µg/mL (≈ 1.81 µM) | 2 µg/mL (≈ 3.62 µM) |
| CN[C@H]1[C@@H](O[C@H]2O[C@H](CO)[C@@H](O)[C@H](N)[C@H]2O)[C@H](NC(=O)[C@@H](O)CCN)C[C@H](N)[C@H]1O[C@H]1O[C@H](CN)CC[C@H]1N | 4 µg/mL (≈ 7.07 µM) | 0.25 µg/mL (≈ 0.442 µM) | 4 µg/mL (≈ 7.07 µM) | 16 µg/mL (≈ 28.3 µM) | 2 µg/mL (≈ 3.54 µM) | 128 µg/mL (≈ 226 µM) |  |  |  |  |  |  |  |  |  |  |  |  |
| NCC[C@H](O)C(=O)N[C@@H]1C[C@H](N)[C@@H](O[C@H]2O[C@H](CN)CC[C@H]2N)[C@@H](NCc2ccccc2)[C@H]1O[C@H]1O[C@H](CO)[C@@H](O)[C@H](N)[C@H]1O | 32 µg/mL (≈ 49.9 µM) | 0.13 µg/mL (≈ 0.203 µM) | 8 µg/mL (≈ 12.5 µM) | 32 µg/mL (≈ 49.9 µM) | 4 µg/mL (≈ 6.23 µM) | 128 µg/mL (≈ 199 µM) | 1 µg/mL (≈ 1.56 µM) |  |  |  |  |  |  |  |  |  |  |  |
| NCC[C@H](O)C(=O)N[C@@H]1C[C@H](N)[C@@H](O[C@H]2O[C@H](CN)CC[C@H]2N)C(O)[C@H]1O[C@H]1O[C@H](CO)[C@@H](O)[C@H](N)[C@H]1O (single isomer, unassigned; form 1) [ARBEKACIN] | 2 µg/mL (≈ 3.62 µM) | 0.06 µg/mL (≈ 0.109 µM) |  |  | 1 µg/mL (≈ 1.81 µM) | 8 µg/mL (≈ 14.5 µM) | 0.25 µg/mL (≈ 0.452 µM) | 0.5 µg/mL (≈ 0.905 µM) | 1 µg/mL (≈ 1.81 µM) |  |  | 2 µg/mL (≈ 3.62 µM) | 2 µg/mL (≈ 3.62 µM) |  |  |  |  |  |
